Patent publication US5057414A, “Method for the determination of the activity of serine proteases or serine protease inhibitors” (Behringwerke Aktiengesellschaft, priority 1987, dated 1991)

What was measured:
[1] = system: urokinase; assay: Comparison Experiment 1: conversion of chromogenic plasmin substrate / activity of urokinase in plasma with lysine and/or ammonium peroxodisulfate; type: biochemical
Description: 50μl of a plasma which is deficient in alpha2 -antiplasmin and has been prepared by immunoadsorption, as well as 1:2, 1:4 and 1:8 mixtures of this deficient plasma with normal plasma, where mixed with 200 μl or solution C (plasminogen activator reagent).
[…] of a 3 mM solution of H-D-Phe-Tyr-Arg-ANBA . 2 HCl in solution A and 500 µl of a plasminogen solution (2 CTA-U/ml) in solution A were added to the samples, the mixtures were incubated at 37° C. for 20 min, subsequently 100 μL of 8.5 M acetic acid were used to stop, and the extinction at 405 nm was determined. […] It is evident that addition of lysine increases the activity of urokinase by more than 100%.

[2] = system: plasmin; assay: Comparison Experiments 5, 6, 8: optimization of reagent concentration in functional PAI (PA) determination (generated plasmin activity); type: biochemical
Description: (§1) Preincubation of 50 μl of sample with 200 μl of a variant of solution C (plasminogen activator dissolved in basic buffer U) at 37° C. for five minutes was followed by addition of 200 μl of a variant of plasminogen reagent (F), composed of 100 mM Tris-HCl pH 8.4, crosslinked polypeptides 1%, ^R Triton×100 0.1%, 100 mM NaCl without tran-examic acid, NaN3 0.01 % (basic buffer U) with 10 CTA-U/ml plasminogen and 200 μl of distilled water with 10 mM chloramine T, 3 mM tranexamic acid to the reaction mixture. The mixture was incubated at 37° C. for 5 min, and 500 μl of 0.6 mM chromogenic plasmin substrate HD-Nva-CHA-Lys-pNA in 480 mM NaCl (or, as a substitute, 200 mM CsCl) were added. The resultant linear change in extinction, delta A/min, at 405 nm was followed.

[3] = biological target: T1, plasmin and alpha2-antiplasmin (Homo sapiens, UniProt P00747); assay: Slowing of the reaction between plasmin and alpha2-antiplasmin by omega-amino carboxylic acids; type: biochemical; settings: lysine 10 to 3,000 mM, epsilon-aminocaproic acid 2 to 500 mM, tranexamic acid 0.1 to 50 mM
T1 construct: native proteins
T1 sequence (P00747 97-810, one chain of several): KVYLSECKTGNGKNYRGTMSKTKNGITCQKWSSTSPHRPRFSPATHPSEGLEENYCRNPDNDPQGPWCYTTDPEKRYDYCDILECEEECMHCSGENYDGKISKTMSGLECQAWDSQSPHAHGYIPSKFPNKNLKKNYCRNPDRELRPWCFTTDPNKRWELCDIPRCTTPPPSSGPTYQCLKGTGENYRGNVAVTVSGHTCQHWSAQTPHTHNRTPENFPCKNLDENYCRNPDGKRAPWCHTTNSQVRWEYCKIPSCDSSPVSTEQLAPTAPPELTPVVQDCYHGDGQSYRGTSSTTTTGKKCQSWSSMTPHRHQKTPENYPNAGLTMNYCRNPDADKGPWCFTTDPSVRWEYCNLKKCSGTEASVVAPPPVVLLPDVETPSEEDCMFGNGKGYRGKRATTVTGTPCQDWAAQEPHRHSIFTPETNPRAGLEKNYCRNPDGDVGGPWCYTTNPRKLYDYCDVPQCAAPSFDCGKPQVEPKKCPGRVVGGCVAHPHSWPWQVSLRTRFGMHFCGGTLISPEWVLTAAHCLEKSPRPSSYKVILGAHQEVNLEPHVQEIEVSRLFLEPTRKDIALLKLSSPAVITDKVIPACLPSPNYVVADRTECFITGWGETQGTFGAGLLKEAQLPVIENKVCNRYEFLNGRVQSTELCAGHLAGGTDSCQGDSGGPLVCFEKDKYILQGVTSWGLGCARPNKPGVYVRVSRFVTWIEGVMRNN

[4] = system: antithrombin III (AT III); assay: Comparison Experiment 13: oxidative inactivation of antithrombin III; type: biochemical; settings: 37° C., 15 min preincubation, pH 8.8
Description: 50 pmol of AT III in 50 μl of 50 mM Tris, 100 mM NaCl, 0.1% (w/v) Triton×100, pH 8.8 buffer, are preincubated with increasing quantities of chloramine T or hydrogen peroxide in 50 μl of distilled water at 37° C. for 15 min. Then 3 pmol of human alpha-thrombin, 2.5 IU of heparin and 2 KIU of aprotinin in 500 μl of 100 mM Tris, 150 mM NaCl, pH 8.2, are added, and the mixture is incubated at 37° C. for 5 min. Addition of 500 μl of 0.4 mM H-D-CHA-But-ArgpNA was followed by further incubation for 3 min (37° C.). The reaction was stopped by 100 μl of 8.5 M acetic acid, and the change in extinction at 405 nm was determined.

[5] = system: human alpha-thrombin; assay: Comparison Experiment 13: oxidation resistance of thrombin; type: biochemical; settings: 500 nmol of chloramine T or 500 times the dose of H202
[6] = system: plasminogen activator inhibitors; settings: Lawrence and Loskutoff, Biochemistry 25, 6351-6355, 1986; cited from earlier work
[7] = system: plasmin; assay: Comparison Experiment 11: effect of chloramine T and/or tranexamic acid on plasmin activity in the functional PAI assay; type: biochemical; settings: for delta A/4 min: 405 nm
Description: as §1

[8] = system: PAI1; assay: Example 5a: determination of PAI2 via preincubation with polycation-containing PA reagent; type: biochemical; settings: protamine chloride 100 U/ml or polylysine 500 μg/ml
[9] = system: urokinase; assay: Example 4: oxidation sensitivity of PAI1 and PAI2 (oxidation before addition of plasminogen activator reagent); type: biochemical; settings: oxidation with chloramine T before addition of plasminogen activator reagent
Description: 50 μl of sample were incubated with 500 μl of solution A (basic buffer) and 50 μl of solution B (oxidizing reagent) at 37° C. for 10 min. Addition of 200 μl of solution C (plasminogen activator reagent) was followed by incubation at 37° C. for 5 min. The substrate conversion was started by addition of 200 μl of solution E (plasmin substrate reagent) and 100 μl of solution F (plasminogen reagent) and the mixture was incubated at 37° C. for 15 min. After addition of 100 μl of 8.5 M acetic acid, the extinction at 405 nm was determined.

[10] = system: plasmin; assay: Oxidative inactivation of alpha2-antiplasmin; type: biochemical
Text: Accurate determination of the said proteins requires that specific and non-specific plasmin inhibitors be quantitatively inactivated. […] This effect corresponds to expectations inasmuch as the plasminogen activator inhibitors belong to the family of serine protease inhibitors (serpins) whose archetype, namely alpha1 -protease inhibitor, contains an oxidizable methionine in the active center. Oxidation of this methionine results in a methionine sulfoxide, and the inhibitory functions are lost with the formation thereof. Lawrence and Loskutoff show, both for alpha1 -protease inhibitor and for plasminogen activator inhibitor, that the inactivation is reversible by treatment with dithiothreitol and methionine-sulfoxide-peptide reductase, i.e. under the conditions described therein the plasminogen activator inhibitor is demonstrably inactivated by oxidation. It was all the less to be expected that the complexes of plasminogen activator and plasminogen activator inhibitor produced in the reaction remain intact even under the oxidizing conditions according to the invention. […] Furthermore, it is very remarkable that the reaction of a non-inhibited plasminogen activator with its substrate, a natural or synthetic plasminogen, as well as the enzymatic reactions dependent thereon, take place undisturbed during the oxidation process.

[11] = system: plasmin; settings: Shieh and Travis, J.Biol.Chem. 262, 6055-6059, 1987; cited from earlier work

N.N.O=S(=O)(O)OOS(=O)(=O)O [ammonium peroxodisulfate]
dependence of the conversion of the chromogenic plasmin substrate on the quantity of alpha2-antiplasmin in the plasma ([1]; 5% (NH4)2S2O8 in distilled water): does not depend on the quantity of alpha2 -antiplasmin

O=S(=O)(NCl)c1ccccc1 [chloramine B]
results with chloramine B in place of chloramine T ([2]; Comparison Experiment 5b): the same as represented for chloramine T

NCCCCCC(=O)O [epsilon-aminocaproic acid]
factor by which the reaction between plasmin and alpha2-antiplasmin is slowed down [3]: at least 10

OO [hydrogen peroxide]
dose of hydrogen peroxide inactivating 50 pmol of AT III, as a multiple [4]: 500 times the dose
activity of thrombin at the dose inactivating AT III [5]: without the activity of thrombin being impaired
concentration inactivating plasminogen activator inhibitors [6]: about 10 mM

NCCCC[C@H](N)C(=O)O [lysine]
increase of the activity of urokinase ([1]; addition of lysine (10% lysine in distilled water)): more than 100%
increase in the extinction compared with the sample without omega-amino carboxylic acid ([1]; without use of an oxidizing agent): more than 100%
factor by which the reaction between plasmin and alpha2-antiplasmin is slowed down [3]: at least 10

NC[C@H]1CC[C@H](C(=O)O)CC1 [tranexamic acid]
factor by which the reaction between plasmin and alpha2-antiplasmin is slowed down [3]: at least 10
tranexamic acid concentration at maximum ([2]; in the reaction mixture, basic buffer and PAI-deficient plasma): 1 to 4 mM
increase in plasmin activity with alpha2-antiplasmin-deficient plasma compared with normal plasma [7]: about 70%
delta A/4 min ([7]; Normal plasma without alpha2-antiplasmin): 829 mA
delta A/4 min ([7]; Normal plasma): 488 mA

polylysine
PAI measured in presence of polycation in the plasminogen activator reagent [8]: only PAI2 (and not PAI1) was measured

protamine chloride
PAI measured in presence of polycation in the plasminogen activator reagent [8]: only PAI2 (and not PAI1) was measured

B1: PAI2: placental inhibitors: these include the inhibitors released from the placenta and leukocytes (protein, UniProt P05120 1-415, looked up)
Plasminogen activator …: MEDLCVANTLFALNLFKHLAKASPTQNLFLSPWSISSTMAMVYMGSRGSTEDQMAKVLQFNEVGANAVTPMTPENFTSCGFMQQIQKGSYPDAILQAQAADKIHSSFRSLSSAINASTGNYLLESVNKLFGEKSASFREEYIRLCQKYYSSEPQAVDFLECAEEARKKINSWVKTQTKGKIPNLLPEGSVDGDTRMVLVNAVYFKGKWKTPFEKKLNGLYPFRVNSAQRTPVQMMYLREKLNIGYIEDLKAQILELPYAGDVSMFLLLPDEIADVSTGLELLESEITYDKLNKWTSKDKMAEDEVEVYIPQFKLEEHYELRSILRSMGMEDAFNKGRANFSGMSERNDLFLSEVFHQAMVDVNEEGTEAAAGTGGVMTGRTGHGGPQFVADHPFLFLIMHKITNCILFFGRFSSP
sensitivity to oxidation [9]: less sensitive to oxidation

B2: alpha2 -antiplasmin: specific plasmin inhibitor (protein, UniProt P08697 40-491, looked up)
Alpha-2-antiplasmin: NQEQVSPLTLLKLGNQEPGGQTALKSPPGVCSRDPTPEQTHRLARAMMAFTADLFSLVAQTSTCPNLILSPLSVALALSHLALGAQNHTLQRLQQVLHAGSGPCLPHLLSRLCQDLGPGAFRLAARMYLQKGFPIKEDFLEQSEQLFGAKPVSLTGKQEDDLANINQWVKEATEGKIQEFLSGLPEDTVLLLLNAIHFQGFWRNKFDPSLTQRDSFHLDEQFTVPVEMMQARTYPLRWFLLEQPEIQVAHFPFKNNMSFVVLVPTHFEWNVSQVLANLSWDTLHPPLVWERPTKVRLPKLYLKHQMDLVATLSQLGLQELFQAPDLRGISEQSLVVSGVQHQSTLELSEVGVEAAAATSIAMSRMSLSSFSVNRPFLFFIFEDTTGLPLFVGSVRNPNPSAPRELKEQQDSPGNKDFLQSLKGFPRGDKLFGPDLKLVPPMEEDYPQFGSPK
inactivation of alpha2-antiplasmin under the oxidizing conditions of the invention [10]: nearly completely inactivated
resistance of alpha2-antiplasmin to oxidation [11]: resistant to oxidation
